# Target: T1, EcBE (E. coli branching enzyme) (Escherichia coli, UniProt P07762)
# T1 construct: gene glgB; N-domain removed (first 113 amino acids of full-length EcBE); CBM48, catalytic and C-terminal domains kept; overexpressed in E. coli; four molecules per asymmetric unit
# T1 sequence (P07762 114-728): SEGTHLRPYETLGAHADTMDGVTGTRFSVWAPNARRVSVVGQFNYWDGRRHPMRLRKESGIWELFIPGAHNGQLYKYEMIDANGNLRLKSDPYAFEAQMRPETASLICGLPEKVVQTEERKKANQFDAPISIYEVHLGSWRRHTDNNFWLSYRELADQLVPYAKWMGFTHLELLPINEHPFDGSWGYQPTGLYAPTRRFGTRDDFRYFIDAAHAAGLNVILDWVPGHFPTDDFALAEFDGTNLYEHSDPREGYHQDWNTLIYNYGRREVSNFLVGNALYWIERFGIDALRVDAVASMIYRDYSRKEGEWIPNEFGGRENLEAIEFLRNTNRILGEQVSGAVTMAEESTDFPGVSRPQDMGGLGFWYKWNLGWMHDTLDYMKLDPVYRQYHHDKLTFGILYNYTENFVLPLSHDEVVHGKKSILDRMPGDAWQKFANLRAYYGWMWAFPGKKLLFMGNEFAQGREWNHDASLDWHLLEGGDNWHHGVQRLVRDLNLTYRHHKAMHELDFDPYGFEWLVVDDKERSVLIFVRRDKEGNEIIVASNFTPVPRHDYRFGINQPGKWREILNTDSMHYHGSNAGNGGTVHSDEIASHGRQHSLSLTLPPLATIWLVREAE
# Assay: X-ray crystallography, crystal soak, […] Å
# Format: binding
# Conditions: crystals soaked in 150 mM maltooctaose 5.5 h, 1.3 M ammonium tartrate pH 7.6, 10% PEG 4000; surface sites I-V and VIII-XII, not active site
structure (smiles),measurement,value
"OC[C@H]1O[C@H](O[C@H]2[C@H](O)[C@@H](O)[C@@H](O[C@H]3[C@H](O)[C@@H](O)[C@@H](O[C@H]4[C@H](O)[C@@H](O)[C@@H](O[C@H]5[C@H](O)[C@@H](O)[C@@H](O[C@H]6[C@H](O)[C@@H](O)[C@@H](O[C@H]7[C@H](O)[C@@H](O)[C@@H](O[C@H]8[C@H](O)[C@@H](O)C(O)O[C@@H]8CO)O[C@@H]7CO)O[C@@H]6CO)O[C@@H]5CO)O[C@@H]4CO)O[C@@H]3CO)O[C@@H]2CO)[C@H](O)[C@@H](O)[C@@H]1O (stereo partly shown) [M8, maltooctaose]","X-ray crystallography, crystal soak, 3.0 Å",we report the crystal structure of the maltooctaose-bound branching enzyme from the enterobacteria E. coli

# — publication PMC10254366, “The Structure of Maltooctaose-Bound Escherichia coli Branching Enzyme Suggests a Mechanism for Donor Chain Specificity” (Molecules, 2023)
